The values that follow come from patent US12667568B2, “Compositions and methods for the treatment and diagnosis of cancer” (The General Hospital Corporation, priority 2020, dated 2026).

Assay type in all cases: cell-based
The subject of one assay is U2OS or MCF7 cells. Nature of the assay: Cell survival assay, YW-1842 alone. Particulars: concentration below 5 μM/L. How it is done:
FIGS. 6F-6G show TRDMT1 inhibitor YW-1842 delays the repair of DSBs at the transcribed genome. (FIG. 6F) U2OS or MCF7 cells were treated with or without compound YW-1842 at the indicated concentration. The survival rate of these cells was shown (n=3, Mean±SD). (FIG. 6G) SCE WT cells were transfected with TA-KR and were cultured with […] YW-1842 or not for 6 hours, γ-H2AX (n=3, 50 cells per replicated, Mean±SD) were stained and quantified.
(§1) Approximately 500 U2OS/TRDMT1 KO U2OS/MCF-7/HCC1954/HCC1937 cells and TRDMT1 siRNA or GFP-TRDMT1 WT/G155V/K251R transfected cells were seeded in 6 cm dish with or without TRDMT1 inhibitors (2.5 μM/L). 6 hrs after seeding, cells were exposed to cisplatin (1134357, Sigma, 1 μM/L), ATMi (KU55933, C9867, Sigma, 1 μM/L), ATRi (AZ20, 57050, Selleck, 1 μM/L) or PARPi (Olaparib, AZD2461, Sigma, 1 μM/L) at indicated concentration or ionizing radiation (IR). After 7-14 days, colonies were fixed and stained with 0.3% crystal violet in methanol, and the number of colonies was counted manually.

The test system of assay [1] is HST578, MBAMD231, HCC1937, HCC1954 cancer cells. Nature of the assay: Cell survival assay, TRDMT1i alone (Example 19). How it is done: FIGS. 14A-14C show TRDMT1i alone reduce cancer cell survival in a dose-dependent manner. (FIG. 14A) Survival rate of HR proficient (HR+) HST578 cancer cells with and without siBRCA1 and/or TRDMT1i YW-1842 at indicated dose. The survival rate of these cells was analyzed (n=3, Mean±SD). (FIG. 14B) Survival rate of MBAMD231 (HR+) and HCC1937 (HRD) cells. The survival rate of these cells was analyzed (n=3, Mean±SD). (FIG. 14C) Cell survival rate in different cancer cell lines via colony-forming assay with the treatment of Imatinib at indicated dose (n=3, mean+/−S.D.). Cell lines are listed in order with the expression level from SYCP2high to SYCP2low.
Cells were seeded in each 6-cm dish and cultured as described above. They were treated with drugs with indicated dose in medium after seeding. After 7-10 days, colonies were fixed and stained with 0.3% crystal violet in methanol, and the number of colonies was counted manually.

The subject of assay [2] is MCF-7, HCC1954, and HCC1937 cells. Nature of the assay: Cell survival assay, YW-1842 with DNA damaging agents, IR or H2O2. On the procedure: FIGS. 6A-6E show TRDMT1 Inhibitors specifically sensitizes cells to DNA damage agents. (FIG. 6A) SCE WT cells were transfected with TA-KR and were cultured with 2.5 μM/L compound YW-1842 or not for 6 hours, m^5C (n=3, 50 cells per replicated, Mean±SD) was stained and quantified. DR-GFP (FIG. 6B) or EJ5-GFP (FIG. 6C) cells were pre-treated with 2.5 μM/L compound YW-1842 for 6 h or TRDMT1 siRNA for 48 h, or DMSO. Then the cells were transfected with NLS-I-SceI plasmid to induce DSB. The efficiency of HR (FIG. 6B) or NHEJ (FIG. 6C) was analyzed by flow-cytometry (n=3, Mean f SD). (FIG. 6D) After seeding, MCF-7, HCC1954, and HCC1937 cells were pre-treated with or without 2.5 μM/L compound YW-1842 for 6 h, then cultured with chemotherapy drugs (1 μM/L Cisplatin; 1 μM/L ATRi AZ20; […]; 1 μM/L PARPi Olaparib for 10 days. The survival rate of these cells was analyzed (n=3, Mean±SD). (FIG. 6E) TRDMT1 KO U2OS cells were transfected with GFP-TRDMT1^WT or GFP-TRDMT1^G155V with or without 2.5 μM/L compound YW-1842, the survival rate of these cells after IR or Cisplatin was shown (n=3, Mean±SD).
MCF-7, HCC1954, and HCC1937 cells were pre-treated with or without TRDMT1 inhibitor YW-1842 (2.5 μM) for 6 hrs, then the cells were exposed to IR or H2O2, and cultured for 7-14 days. The survival rate of these cells was analyzed (n=3, Mean±SD)
as §1

Regarding `COc1cc2nc(-n3cc(-c4ccc(S(C)(=O)=O)cc4)cn3)nc(-c3ccsc3)c2cc1OC` [YW-1842, 6,7-dimethoxy-2-(4-(4-(methylsulfonyl)phenyl)-1H-pyrazol-1-yl)-4-(thiophen-3-yl)quinazoline], the antiproliferative effect result with U2OS or MCF7 cells is “did not prohibit cell proliferation”. The “sensitivity of HR deficient cells to TRDMT1i alone” value in assay [1] (HCC1937 (HRD) versus MBAMD231 (HR+)) is “more sensitive”. Besides, the “killing of HCC1954” value in assay [1] (HCC1954, HRD, high SYCP2) was “efficiently killed HCC1954”. Further, the “cancer cell survival, TRDMT1i alone” value in assay [1] (HR-proficient HST578 cells) is “kills HR-proficient cancer cells HST578 in a dose-dependent manner”. Besides, the “TRDMT1i sensitivity on BRCA1 knockdown” value in assay [1] (HST578 cells with siBRCA1) is “significantly increased TRDMT1i sensitivity”. In addition, the “killing across cancer cell lines by SYCP2 level and HR status” value in assay [1] (cell lines ordered SYCP2high to SYCP2low (FIG. 14C)) was “killed SYCP2-high cancer cell lines and HR deficient cells the most efficiently”. In assay [2] (2.5 μM, combined with H2O2, versus DMSO), the “survival rate in combination with H2O2” value was “decreased the survival rate of all the three cell lines”. For the same molecule, the “sensitization to DNA damaging agents (survival rate)” value in assay [2] (2.5 μM/L with Cisplatin, ATRi AZ20, ATMi KU55933 or PARPi Olaparib, versus single treatment) is reported as “sensitizes the cells to above DNA damaging agents”. Moreover, in assay [2] (2.5 μM/L, alone), the “cell killing by compound alone” value is “does not kill cells alone”. Further, the “synergy with PARPi Olaparib” value in assay [2] (YW-1842 2.5 μM, Olaparib at 1, HCC 1954 cell lines) is reported as “strong synergy”.
